Read-outs that look alike come from different tables or passages of the source.
Experiments:
Assay in all cases: Kinase binding screen
[1] = target: PYK2 (Homo sapiens (Human), UniProt Q14289); conditions: read-out: Percent Control at 100 nM Compound Concentration
[2] = tested on: FLT3(ITD,F691L); set-up: species or system human
[3] = target: NDR2 (Homo sapiens (Human), UniProt Q9Y2H1); conditions: read-out: Percent Control at 100 nM Compound Concentration
[4] = target: HIPK3 (Homo sapiens (Human), UniProt Q9H422); conditions: read-out: Percent Control at 100 nM Compound Concentration
[5] = target: FLT3(D835H) (Homo sapiens (Human), UniProt P36888, D835H); conditions: read-out: Percent Control at 100 nM Compound Concentration
[6] = target: CDK3 (Homo sapiens (Human), UniProt Q00526); conditions: read-out: Percent Control at 100 nM Compound Concentration
[7] = target: LOK (Homo sapiens (Human), UniProt O94804); conditions: read-out: Percent Control at 100 nM Compound Concentration
[8] = target: JAK1(JH2domain-pseudokinase) (Homo sapiens (Human), UniProt P23458); conditions: read-out: Percent Control at 100 nM Compound Concentration
[9] = target: MEK2 (Homo sapiens (Human), UniProt P36507); conditions: read-out: Percent Control at 100 nM Compound Concentration
[10] = tested on: FLT3(ITD); set-up: species or system human
[11] = target: PIK3C2G (Homo sapiens (Human), UniProt O75747); conditions: read-out: Percent Control at 100 nM Compound Concentration
[12] = target: PIK3CA(E545K) (Homo sapiens (Human), UniProt P42336, E545K); conditions: read-out: Percent Control at 100 nM Compound Concentration
[13] = target: EPHA5 (Homo sapiens (Human), UniProt P54756); conditions: read-out: Percent Control at 100 nM Compound Concentration
[14] = target: ABL1(H396P)-nonphosphorylated (Homo sapiens (Human), UniProt P00519, H396P); conditions: read-out: Percent Control at 100 nM Compound Concentration
[15] = target: MKNK1 (Homo sapiens (Human), UniProt Q9BUB5); conditions: read-out: Percent Control at 100 nM Compound Concentration
[16] = target: CDK11 (Homo sapiens (Human), UniProt Q9BWU1); conditions: read-out: Percent Control at 100 nM Compound Concentration
[17] = target: PIK3CA(E545A) (Homo sapiens (Human), UniProt P42336, E545A); conditions: read-out: Percent Control at 100 nM Compound Concentration
[18] = target: PIK3CA(Q546K) (Homo sapiens (Human), UniProt P42336, Q546K); conditions: read-out: Percent Control at 100 nM Compound Concentration
[19] = target: TEC (Homo sapiens (Human), UniProt P42680); conditions: read-out: Percent Control at 100 nM Compound Concentration
[20] = target: YSK4 (Homo sapiens (Human), UniProt Q56UN5); conditions: read-out: Percent Control at 100 nM Compound Concentration
[21] = target: PIP5K1C (Homo sapiens (Human), UniProt O60331); conditions: read-out: Percent Control at 100 nM Compound Concentration
[22] = target: MARK1 (Homo sapiens (Human), UniProt Q9P0L2); conditions: read-out: Percent Control at 100 nM Compound Concentration
[23] = target: IKK-alpha (Homo sapiens (Human), UniProt O15111); conditions: read-out: Percent Control at 100 nM Compound Concentration
[24] = target: ERBB4 (Homo sapiens (Human), UniProt Q15303); conditions: read-out: Percent Control at 100 nM Compound Concentration
[25] = target: ULK2 (Homo sapiens (Human), UniProt Q8IYT8); conditions: read-out: Percent Control at 100 nM Compound Concentration
[26] = target: DLK (Homo sapiens (Human), UniProt Q12852); conditions: read-out: Percent Control at 100 nM Compound Concentration
[27] = target: LTK (Homo sapiens (Human), UniProt P29376); conditions: read-out: Percent Control at 100 nM Compound Concentration
[28] = target: MST4 (Homo sapiens (Human), UniProt Q9P289); conditions: read-out: Percent Control at 100 nM Compound Concentration
[29] = target: EGFR(L747-S752del, P753S) (Homo sapiens (Human), UniProt P00533, DEL747-752/P753S); conditions: read-out: Percent Control at 100 nM Compound Concentration
EGFR(L747-S752del, P753S), sequence (P00533 other isoform, or with tags, fused parts or gaps P753S/del L747-S752): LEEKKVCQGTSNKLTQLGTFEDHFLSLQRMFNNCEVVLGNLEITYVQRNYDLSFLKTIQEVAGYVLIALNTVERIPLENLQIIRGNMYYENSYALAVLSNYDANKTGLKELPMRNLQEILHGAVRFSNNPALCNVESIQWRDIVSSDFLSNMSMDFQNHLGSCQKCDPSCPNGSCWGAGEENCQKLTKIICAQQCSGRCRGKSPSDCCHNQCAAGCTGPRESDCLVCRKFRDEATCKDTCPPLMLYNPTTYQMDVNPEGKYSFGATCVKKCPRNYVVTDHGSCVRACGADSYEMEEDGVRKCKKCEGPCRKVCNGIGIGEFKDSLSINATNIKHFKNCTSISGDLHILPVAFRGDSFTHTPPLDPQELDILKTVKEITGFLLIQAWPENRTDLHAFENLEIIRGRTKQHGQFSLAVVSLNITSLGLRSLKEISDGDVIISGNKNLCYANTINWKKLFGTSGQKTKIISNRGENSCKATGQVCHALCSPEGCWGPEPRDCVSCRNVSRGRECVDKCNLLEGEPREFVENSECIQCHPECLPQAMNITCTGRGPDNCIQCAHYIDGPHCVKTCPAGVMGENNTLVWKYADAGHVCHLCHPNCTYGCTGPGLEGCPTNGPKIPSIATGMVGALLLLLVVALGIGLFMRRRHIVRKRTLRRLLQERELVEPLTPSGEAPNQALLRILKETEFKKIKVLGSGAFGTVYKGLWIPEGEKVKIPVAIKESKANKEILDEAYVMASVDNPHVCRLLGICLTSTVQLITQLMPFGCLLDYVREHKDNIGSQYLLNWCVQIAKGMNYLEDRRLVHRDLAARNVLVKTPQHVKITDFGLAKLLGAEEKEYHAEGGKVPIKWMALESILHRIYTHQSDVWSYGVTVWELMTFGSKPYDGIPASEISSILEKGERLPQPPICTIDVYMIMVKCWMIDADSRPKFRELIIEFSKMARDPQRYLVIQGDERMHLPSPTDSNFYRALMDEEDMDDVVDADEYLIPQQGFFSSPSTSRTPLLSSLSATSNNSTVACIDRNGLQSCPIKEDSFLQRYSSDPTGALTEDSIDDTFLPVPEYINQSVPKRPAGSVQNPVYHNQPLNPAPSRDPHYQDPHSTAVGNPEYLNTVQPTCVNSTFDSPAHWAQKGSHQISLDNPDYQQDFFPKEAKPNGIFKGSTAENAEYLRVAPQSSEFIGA

TEC, sequence (P42680 whole entry): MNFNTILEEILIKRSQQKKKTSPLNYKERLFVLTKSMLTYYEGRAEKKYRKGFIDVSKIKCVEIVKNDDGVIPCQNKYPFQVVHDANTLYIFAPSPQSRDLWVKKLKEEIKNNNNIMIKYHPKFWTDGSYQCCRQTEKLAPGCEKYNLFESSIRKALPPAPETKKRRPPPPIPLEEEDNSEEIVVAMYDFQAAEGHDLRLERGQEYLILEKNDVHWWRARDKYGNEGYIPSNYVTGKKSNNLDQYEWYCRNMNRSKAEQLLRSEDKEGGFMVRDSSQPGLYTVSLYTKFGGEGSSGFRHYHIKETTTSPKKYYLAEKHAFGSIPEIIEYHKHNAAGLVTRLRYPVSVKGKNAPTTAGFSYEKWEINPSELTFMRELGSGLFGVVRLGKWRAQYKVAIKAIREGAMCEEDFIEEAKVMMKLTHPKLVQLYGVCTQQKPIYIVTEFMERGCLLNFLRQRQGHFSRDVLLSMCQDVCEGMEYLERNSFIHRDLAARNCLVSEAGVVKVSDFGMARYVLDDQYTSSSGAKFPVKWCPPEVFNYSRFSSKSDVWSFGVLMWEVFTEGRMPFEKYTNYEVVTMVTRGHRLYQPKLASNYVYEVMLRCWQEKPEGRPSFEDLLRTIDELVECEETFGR
PIP5K1C, sequence (O60331 whole entry): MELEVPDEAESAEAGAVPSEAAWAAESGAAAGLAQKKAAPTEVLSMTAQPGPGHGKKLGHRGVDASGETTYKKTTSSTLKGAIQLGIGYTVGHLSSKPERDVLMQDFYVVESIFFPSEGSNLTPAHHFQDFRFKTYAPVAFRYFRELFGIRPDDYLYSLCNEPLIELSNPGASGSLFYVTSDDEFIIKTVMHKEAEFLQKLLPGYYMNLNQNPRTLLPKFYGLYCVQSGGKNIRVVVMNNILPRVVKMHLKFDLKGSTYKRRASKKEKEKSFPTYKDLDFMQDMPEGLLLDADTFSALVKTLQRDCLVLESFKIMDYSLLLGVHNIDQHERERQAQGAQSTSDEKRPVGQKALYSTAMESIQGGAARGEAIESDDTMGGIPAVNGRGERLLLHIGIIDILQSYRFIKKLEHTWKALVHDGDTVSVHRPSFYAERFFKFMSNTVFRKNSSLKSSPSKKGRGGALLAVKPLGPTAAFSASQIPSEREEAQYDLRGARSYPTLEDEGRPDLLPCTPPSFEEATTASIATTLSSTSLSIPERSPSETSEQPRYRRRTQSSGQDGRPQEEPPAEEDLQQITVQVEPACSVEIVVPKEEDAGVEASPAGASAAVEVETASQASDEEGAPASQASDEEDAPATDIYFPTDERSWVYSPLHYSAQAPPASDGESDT
EPHA5, sequence (P54756 25-1037): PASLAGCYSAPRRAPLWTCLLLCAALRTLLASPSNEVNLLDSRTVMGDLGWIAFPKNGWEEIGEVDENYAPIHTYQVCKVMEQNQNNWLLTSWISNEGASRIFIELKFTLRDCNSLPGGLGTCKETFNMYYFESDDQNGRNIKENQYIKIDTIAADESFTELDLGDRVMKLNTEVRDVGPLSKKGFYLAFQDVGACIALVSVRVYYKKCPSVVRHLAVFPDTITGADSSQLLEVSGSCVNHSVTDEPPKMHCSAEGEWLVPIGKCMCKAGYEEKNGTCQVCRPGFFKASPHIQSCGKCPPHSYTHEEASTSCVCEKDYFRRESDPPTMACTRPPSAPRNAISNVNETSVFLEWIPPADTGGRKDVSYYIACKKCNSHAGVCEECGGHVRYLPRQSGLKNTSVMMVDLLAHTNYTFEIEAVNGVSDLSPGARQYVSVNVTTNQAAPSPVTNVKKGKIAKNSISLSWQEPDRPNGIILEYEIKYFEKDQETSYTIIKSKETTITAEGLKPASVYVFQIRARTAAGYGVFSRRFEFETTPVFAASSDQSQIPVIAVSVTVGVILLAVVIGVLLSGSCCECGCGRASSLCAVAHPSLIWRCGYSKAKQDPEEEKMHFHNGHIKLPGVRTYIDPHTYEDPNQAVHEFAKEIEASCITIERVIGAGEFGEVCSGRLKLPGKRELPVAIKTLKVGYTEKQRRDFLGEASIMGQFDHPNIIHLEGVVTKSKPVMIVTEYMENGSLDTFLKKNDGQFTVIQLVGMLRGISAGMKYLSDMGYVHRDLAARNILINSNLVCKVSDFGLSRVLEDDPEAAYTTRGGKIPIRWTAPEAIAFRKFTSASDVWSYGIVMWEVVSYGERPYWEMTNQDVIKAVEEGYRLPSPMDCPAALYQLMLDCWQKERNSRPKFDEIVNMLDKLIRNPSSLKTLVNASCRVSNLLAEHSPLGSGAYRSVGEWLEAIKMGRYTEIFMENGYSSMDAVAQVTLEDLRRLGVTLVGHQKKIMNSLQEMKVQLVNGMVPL
CDK11, sequence (Q9BWU1 whole entry): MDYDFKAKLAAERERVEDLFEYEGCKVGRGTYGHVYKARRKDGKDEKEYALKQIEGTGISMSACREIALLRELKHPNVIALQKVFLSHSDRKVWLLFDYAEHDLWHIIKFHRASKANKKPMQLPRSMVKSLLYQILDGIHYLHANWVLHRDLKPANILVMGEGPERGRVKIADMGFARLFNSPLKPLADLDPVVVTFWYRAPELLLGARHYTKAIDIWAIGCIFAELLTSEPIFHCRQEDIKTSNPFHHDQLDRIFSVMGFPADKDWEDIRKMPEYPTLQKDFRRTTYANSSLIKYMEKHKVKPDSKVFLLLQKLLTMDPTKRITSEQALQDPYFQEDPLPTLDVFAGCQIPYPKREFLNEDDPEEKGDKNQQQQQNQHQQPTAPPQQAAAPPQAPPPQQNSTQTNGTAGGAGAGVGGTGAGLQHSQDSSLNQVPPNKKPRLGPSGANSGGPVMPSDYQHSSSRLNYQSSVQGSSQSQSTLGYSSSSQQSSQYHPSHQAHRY
MARK1, sequence (Q9P0L2 whole entry): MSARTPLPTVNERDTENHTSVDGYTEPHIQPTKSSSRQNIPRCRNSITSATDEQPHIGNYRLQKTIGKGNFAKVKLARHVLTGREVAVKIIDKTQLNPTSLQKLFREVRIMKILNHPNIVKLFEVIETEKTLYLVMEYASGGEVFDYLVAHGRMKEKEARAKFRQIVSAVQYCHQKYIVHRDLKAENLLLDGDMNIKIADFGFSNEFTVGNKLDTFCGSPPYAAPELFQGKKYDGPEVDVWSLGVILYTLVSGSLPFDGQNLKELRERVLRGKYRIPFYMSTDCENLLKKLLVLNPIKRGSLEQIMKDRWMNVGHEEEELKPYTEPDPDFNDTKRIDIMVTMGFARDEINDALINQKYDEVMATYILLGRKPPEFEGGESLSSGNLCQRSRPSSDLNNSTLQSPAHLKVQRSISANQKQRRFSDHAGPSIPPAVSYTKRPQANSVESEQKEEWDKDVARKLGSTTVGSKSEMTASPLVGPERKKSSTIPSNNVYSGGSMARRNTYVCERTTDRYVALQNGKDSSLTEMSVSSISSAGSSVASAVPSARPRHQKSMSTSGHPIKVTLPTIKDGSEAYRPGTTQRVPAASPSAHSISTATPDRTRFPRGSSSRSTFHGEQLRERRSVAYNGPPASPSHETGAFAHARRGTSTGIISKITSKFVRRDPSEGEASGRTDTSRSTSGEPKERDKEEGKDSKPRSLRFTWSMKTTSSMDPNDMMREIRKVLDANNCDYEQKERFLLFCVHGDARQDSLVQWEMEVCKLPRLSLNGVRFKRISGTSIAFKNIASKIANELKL
JAK1(JH2domain-pseudokinase), sequence (P23458 583-855): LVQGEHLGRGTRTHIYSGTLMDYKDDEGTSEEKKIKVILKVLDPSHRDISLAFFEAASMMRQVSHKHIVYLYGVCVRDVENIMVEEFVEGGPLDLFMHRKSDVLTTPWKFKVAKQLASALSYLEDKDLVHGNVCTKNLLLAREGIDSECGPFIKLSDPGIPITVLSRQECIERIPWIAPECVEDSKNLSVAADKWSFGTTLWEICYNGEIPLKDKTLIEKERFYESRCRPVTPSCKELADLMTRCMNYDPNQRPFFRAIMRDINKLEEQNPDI

SMILES: CN(C[C@H](Cc1ccccc1)OP(=O)(O)O)C(=O)c1cncc(C#Cc2cnn(C(F)F)c2)c1 [Example 19, (S)-1-(5-((1-(difluoromethyl)-1H-pyrazol-4-yl)ethynyl)-N-methylnicotinamido)-3-phenylpropan-2-yl dihydrogen phosphate]
- remaining activity at 0.1 µM [1]: 100%
- Percent Control at 100 nM Compound Concentration [2]: 97%
- remaining activity at 0.1 µM [3]: 84%
- remaining activity at 0.1 µM [4]: 88%
- remaining activity at 0.1 µM [5]: 100%
- remaining activity at 0.1 µM [6]: 100%
- remaining activity at 0.1 µM [7]: 100%
- remaining activity at 0.1 µM [8]: 86%
- remaining activity at 0.1 µM [9]: 98%
- Percent Control at 100 nM Compound Concentration [10]: 100%
- remaining activity at 0.1 µM [11]: 78%
- remaining activity at 0.1 µM [12]: 85%
- remaining activity at 0.1 µM [13]: 100%
- remaining activity at 0.1 µM [14]: 96%
- remaining activity at 0.1 µM [15]: 91%
- remaining activity at 0.1 µM [16]: 92%
- remaining activity at 0.1 µM [17]: 94%
- remaining activity at 0.1 µM [18]: 88%
- remaining activity at 0.1 µM [19]: 93%
- remaining activity at 0.1 µM [20]: 90%
- remaining activity at 0.1 µM [21]: 85%
- remaining activity at 0.1 µM [22]: 96%
- remaining activity at 0.1 µM [23]: 99%
- remaining activity at 0.1 µM [24]: 93%
- remaining activity at 0.1 µM [25]: 94%
- remaining activity at 0.1 µM [26]: 100%
- remaining activity at 0.1 µM [27]: 100%
- remaining activity at 0.1 µM [28]: 84%
- remaining activity at 0.1 µM [29]: 97%

SMILES: CN(C[C@@H](O)Cc1ccccc1)C(=O)c1cncc(C#Cc2cnn(C(F)F)c2)c1 [Example 2, (S)-5-((1-(difluoromethyl)-1H-pyrazol-4-yl)ethynyl)-N-(2-hydroxy-3-phenylpropyl)-N-methylnicotinamide]
- remaining activity at 0.1 µM ([1]; PYK2): 100%
- Percent Control at 100 nM Compound Concentration [2]: 98%
- remaining activity at 0.1 µM ([3]; NDR2): 94%
- remaining activity at 0.1 µM ([4]; HIPK3): 100%
- remaining activity at 0.1 µM ([5]; FLT3(D835H)): 100%
- remaining activity at 0.1 µM ([6]; CDK3): 100%
- remaining activity at 0.1 µM ([7]; LOK): 100%
- remaining activity at 0.1 µM ([8]; JAK1(JH2domain-pseudokinase)): 93%
- remaining activity at 0.1 µM ([9]; MEK2): 99%
- Percent Control at 100 nM Compound Concentration [10]: 100%
- remaining activity at 0.1 µM ([11]; PIK3C2G): 85%
- remaining activity at 0.1 µM ([12]; PIK3CA(E545K)): 91%
- remaining activity at 0.1 µM ([13]; EPHA5): 100%
- remaining activity at 0.1 µM ([14]; ABL1(H396P)-nonphosphorylated): 88%
- remaining activity at 0.1 µM ([15]; MKNK1): 96%
- remaining activity at 0.1 µM ([16]; CDK11): 4.8%
- remaining activity at 0.1 µM ([17]; PIK3CA(E545A)): 89%
- remaining activity at 0.1 µM ([18]; PIK3CA(Q546K)): 96%
- remaining activity at 0.1 µM ([19]; TEC): 99%
- remaining activity at 0.1 µM ([20]; YSK4): 99%
- remaining activity at 0.1 µM ([21]; PIP5K1C): 100%
- remaining activity at 0.1 µM ([22]; MARK1): 100%
- remaining activity at 0.1 µM ([23]; IKK-alpha): 100%
- remaining activity at 0.1 µM ([24]; ERBB4): 94%
- remaining activity at 0.1 µM ([25]; ULK2): 100%
- remaining activity at 0.1 µM ([26]; DLK): 100%
- remaining activity at 0.1 µM ([27]; LTK): 100%
- remaining activity at 0.1 µM ([28]; MST4): 97%
- remaining activity at 0.1 µM ([29]; EGFR(L747-S752del, P753S)): 100%

From patent publication US11767310B2, “Nicotinamide RIPK1 inhibitors” (AbbVie Inc., priority 2021, dated 2023)
